In patent US4282236A, “β-Lactam antibacterial agents, their use in pharmaceutical compositions, and intermediates” (Beecham Group Limited, priority 1979, dated 1981):

Tests used:
Type in all cases: cell-based
Proteus rettgeri WM16 = test: MIC, DST agar + 10% horse blood; conditions: Providencia rettgeri, read-out: minimum inhibitory concentration (MIC)
Description: (§1) The penem ester (21) (30 mg) was dissolved in a mixture of dioxane (4 ml) and water (1 ml) and hydrogenated over 5% palladium on charcoal catalyst (45 mg) for one hour. A further amount of catalyst (30 mg) was added and the hydrogenation was continued for a further one and a half hours. A 1% solution of sodium bicarbonate (0.6 ml) was added and the mixture filtered through Kieselguhr. The mixture was evaporated to low volume, water (10 ml) was added, and the aqueous solution washed with a little ethyl acetate. Evaporation of the aqueous phase afforded the sodium salt (22) (17 mg) as an amorphous solid. λmax. (EtOH) 364 n.m.
(§2) 1. DST agar + 10% horse blood
(§3) lution for G.div.ve bacteria or
(§4) Minimum Inhibitory Concentrations are expressed in microgrammes per ml.

Escherichia coli JT 39 [1] = test: MIC, DST agar + 10% horse blood; conditions: JT39, read-out: minimum inhibitory concentration (MIC)
Description: as §1, §2, §3, §4

Shigella sonnei MB 11967 = test: MIC, DST agar + 10% horse blood; conditions: MB11967, read-out: minimum inhibitory concentration (MIC)
Description: as §1, §2, §3, §4

Enterobacter cloacae N1 = test: MIC, DST agar + 10% horse blood; conditions: read-out: minimum inhibitory concentration (MIC)
Description: as §1, §2, §3, §4

Citrobacter freundii E8 = test: MIC, DST agar + 10% horse blood; conditions: read-out: minimum inhibitory concentration (MIC)
Description: as §1, §2, §3, §4

[2] = system: Salmonella typhimurium CT10; test: MIC, DST agar + 10% horse blood; conditions: Salmonella enterica, read-out: minimum inhibitory concentration (MIC)
Description: as §1, §2, §3, §4

Pseudomonas aeruginosa A [3] = test: MIC, DST agar + 10% horse blood; conditions: read-out: minimum inhibitory concentration (MIC)
Description: as §1, §2, §3, §4

[4] = system: Streptococcus pneumoniae CN33; test: MIC, DST agar + 10% horse blood; conditions: read-out: minimum inhibitory concentration (MIC)
Description: as §1, §2, §3, §4

Escherichia coli 0111 [5] = test: MIC, DST agar + 10% horse blood; conditions: read-out: minimum inhibitory concentration (MIC)
Description: as §1, §2, §3, §4

Serratia marcescens US20 = test: MIC, DST agar + 10% horse blood; conditions: read-out: minimum inhibitory concentration (MIC)
Description: as §1, §2, §3, §4

Klebsiella aerogenes A [6] = test: MIC, DST agar + 10% horse blood; conditions: read-out: minimum inhibitory concentration (MIC)
Description: as §1, §2, §3, §4

[7] = system: Staphylococcus aureus Russell; test: MIC, DST agar + 10% horse blood; conditions: read-out: minimum inhibitory concentration (MIC)
Description: as §1, §2, §3, §4

[8] = system: Staphylococcus aureus 1517; test: MIC, DST agar + 10% horse blood; conditions: read-out: minimum inhibitory concentration (MIC)
Description: as §1, §2, §3, §4

Bacillus subtilis A = test: MIC, DST agar + 10% horse blood; conditions: read-out: minimum inhibitory concentration (MIC)
Description: as §1, §2, §3, §4

Proteus morganii I580 = test: MIC, DST agar + 10% horse blood; conditions: Morganella morganii, read-out: minimum inhibitory concentration (MIC)
Description: as §1, §2, §3, §4

Proteus mirabilis C977 [9] = test: MIC, DST agar + 10% horse blood; conditions: read-out: minimum inhibitory concentration (MIC)
Description: as §1, §2, §3, §4

E. coli ESS = test: MIC, DST agar + 10% horse blood; conditions: Escherichia coli, read-out: minimum inhibitory concentration (MIC)
Description: as §1, §2, §3, §4

[10] = system: Streptococcus pyogenes CN10; test: MIC, DST agar + 10% horse blood; conditions: read-out: minimum inhibitory concentration (MIC)
Description: as §1, §2, §3, §4

Proteus vulgaris W091 = test: MIC, DST agar + 10% horse blood; conditions: read-out: minimum inhibitory concentration (MIC)
Description: as §1, §2, §3, §4

[11] = system: Staphylococcus aureus Oxford; test: MIC, DST agar + 10% horse blood; conditions: read-out: minimum inhibitory concentration (MIC)
Description: as §1, §2, §3, §4

Escherichia coli JT 39 [12] = test: MIC, microtitre using nutrient broth; conditions: JT39, read-out: minimum inhibitory concentration (MIC)
Description: as §1
(§5) 2. Microtitre using nutrient
as §3
(§6) broth a 10^- 4 dilution for G-ve
as §4

[13] = system: Salmonella typhimurium CT10; test: MIC, microtitre using nutrient broth; conditions: Salmonella enterica, read-out: minimum inhibitory concentration (MIC)
Description: as §1, §5, §3, §6, §4

Pseudomonas aeruginosa A [14] = test: MIC, microtitre using nutrient broth; conditions: read-out: minimum inhibitory concentration (MIC)
Description: as §1, §5, §3, §6, §4

Escherichia coli 0111 [15] = test: MIC, microtitre using nutrient broth; conditions: read-out: minimum inhibitory concentration (MIC)
Description: as §1, §5, §3, §6, §4

Klebsiella aerogenes A [16] = test: MIC, microtitre using nutrient broth; conditions: read-out: minimum inhibitory concentration (MIC)
Description: as §1, §5, §3, §6, §4

[17] = system: Staphylococcus aureus Russell; test: MIC, microtitre using nutrient broth; conditions: read-out: minimum inhibitory concentration (MIC)
Description: as §1, §5, §3, §6, §4

Proteus mirabilis C977 [18] = test: MIC, microtitre using nutrient broth; conditions: read-out: minimum inhibitory concentration (MIC)
Description: as §1, §5, §3, §6, §4

[19] = system: Staphylococcus aureus Oxford; test: MIC, microtitre using nutrient broth; conditions: read-out: minimum inhibitory concentration (MIC)
Description: as §1, §5, §3, §6, §4

COC(=O)/C=C/C1=C(C(=O)O)N2C(=O)C[C@H]2S1 [compound 22, Sodium 2-(trans-2-Carbomethoxy-vinyl) penem-3-carboxylate]
MIC (Proteus rettgeri WM16): 50 µg/mL | MIC (Escherichia coli JT 39 [1]): 100 µg/mL | MIC (Shigella sonnei MB 11967): 100 µg/mL | MIC (Enterobacter cloacae N1): 50 µg/mL | MIC (Citrobacter freundii E8): 25 µg/mL | MIC [2]: 50 µg/mL | MIC (Pseudomonas aeruginosa A [3]): > 100 µg/mL | MIC [4]: 0.5 µg/mL | MIC (Escherichia coli 0111 [5]): 25 µg/mL | MIC (Serratia marcescens US20): 50 µg/mL | MIC (Klebsiella aerogenes A [6]): 25 µg/mL | MIC [7]: 10 µg/mL | MIC [8]: 50 µg/mL | MIC (Bacillus subtilis A): 5 µg/mL | MIC (Proteus morganii I580): 50 µg/mL | MIC (Proteus mirabilis C977 [9]): 25 µg/mL | MIC (E. coli ESS): 25 µg/mL | MIC [10]: 2.5 µg/mL | MIC (Proteus vulgaris W091): 50 µg/mL | MIC [11]: 5 µg/mL | MIC (Escherichia coli JT 39 [12]): 250 µg/mL | MIC [13]: 125 µg/mL | MIC (Pseudomonas aeruginosa A [14]): > 500 µg/mL | MIC (Escherichia coli 0111 [15]): 62 µg/mL | MIC (Klebsiella aerogenes A [16]): 31 µg/mL | MIC [17]: 16 µg/mL | MIC (Proteus mirabilis C977 [18]): 125 µg/mL | MIC [19]: 8 µg/mL
